Measured values as given in US6936585B2, “Corticotropin releasing factor 2 receptor agonists” (priority 2002, dated 2005).
Read-outs that look alike come from different tables or passages of the source. Ends that are not written are not given here. Peptide text beside a SMILES is read from it.

Assays:
[1] = biological target: T1, CRF1R (Homo sapiens, UniProt P34998); test: CRF1R agonist activation (EC50 / Emax), called comparative CRF binding; format: cell-based; settings: for Emax: read-out: CRF1R Emax
T1 sequence (P34998 24-415): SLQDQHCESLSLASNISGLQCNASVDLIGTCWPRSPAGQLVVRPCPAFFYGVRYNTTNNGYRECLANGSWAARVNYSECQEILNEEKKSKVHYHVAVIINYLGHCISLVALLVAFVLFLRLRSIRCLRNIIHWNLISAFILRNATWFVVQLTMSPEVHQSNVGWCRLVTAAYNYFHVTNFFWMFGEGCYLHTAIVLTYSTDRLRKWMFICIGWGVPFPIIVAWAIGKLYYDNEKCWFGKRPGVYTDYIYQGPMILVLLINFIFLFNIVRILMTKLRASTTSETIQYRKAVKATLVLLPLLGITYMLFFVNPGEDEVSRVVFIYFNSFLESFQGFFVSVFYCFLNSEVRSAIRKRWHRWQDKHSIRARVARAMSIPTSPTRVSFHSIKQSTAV
In short: (§1)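 Read-out is Gαs-driven cAMP induction, quantified directly in lysates or through CRE-reporter gene expression, after treating CRF1R- or CRF2R-expressing cells with peptide. Vehicle-treated cells serve as the comparison.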

[2] = biological target: T2, CRF2R (Homo sapiens, UniProt Q13324); test: CRF2R agonist activation (EC50 / Emax), called comparative CRF binding; format: cell-based; settings: for Emax: read-out: CRF2R Emax
T2 sequence (Q13324 1-411): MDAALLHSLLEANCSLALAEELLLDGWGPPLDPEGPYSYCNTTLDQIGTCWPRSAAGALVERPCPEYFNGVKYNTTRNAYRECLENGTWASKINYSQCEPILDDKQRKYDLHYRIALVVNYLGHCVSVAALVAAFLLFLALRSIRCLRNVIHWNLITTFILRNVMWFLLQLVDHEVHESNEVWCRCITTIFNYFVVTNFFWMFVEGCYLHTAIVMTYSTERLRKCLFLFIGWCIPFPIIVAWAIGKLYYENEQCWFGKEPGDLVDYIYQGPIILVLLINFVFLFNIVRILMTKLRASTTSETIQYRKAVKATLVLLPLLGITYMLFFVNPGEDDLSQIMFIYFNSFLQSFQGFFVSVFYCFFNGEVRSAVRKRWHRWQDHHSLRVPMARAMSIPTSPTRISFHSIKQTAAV
In short: as §1

| Compound | Emax [1] [%] | Emax [2] [%] | EC50 ([1]; CRF1R EC50) [nM] | EC50 [2] [nM] | EC50 ([1]; read-out: CRF1R EC50) [nM] | EC50 ([2]; read-out: CRF2R EC50) [nM] |
| --- | --- | --- | --- | --- | --- | --- |
| SQEPPISLDLPFGLLREVLEMTKADQLAQQAHSNRKLLDIA-NH2 [compound 103] | 5.75 | 4.85 | – | – | – | – |
| SQEPPISLDLPTHLLREVLEMTKADQLAQQAHSNRKLLDIA-NH2 [compound 99] | 4.35 | 4.35 | – | – | – | – |
| CC[C@H](C)[C@H](NC(=O)[C@H](C)NC(=O)[C@H](CC(N)=O)NC(=O)[C@H](CCC(N)=O)NC(=O)[C@H](CCC(=O)O)NC(=O)[C@H](C)NC(=O)[C@H](CCCNC(=N)N)NC(=O)[C@H](CCC(=O)O)NC(=O)[C@H](CCCNC(=N)N)NC(=O)[C@H](CCC(N)=O)NC(=O)[C@H](CO)NC(=O)[C@H](CCC(N)=O)NC(=O)[C@@H](NC(=O)[C@H](CCCCN)NC(=O)[C@H](CCC(=O)O)NC(=O)[C@H](CC(C)C)NC(=O)[C@H](CCC(=O)O)NC(=O)[C@H](CC(C)C)NC(=O)[C@H](CC(C)C)NC(=O)[C@@H](NC(=O)[C@H](CCCNC(=N)N)NC(=O)[C@H](CC(C)C)NC(=O)[C@H](CC(C)C)NC(=O)[C@H](CC(C)C)NC(=O)[C@H](CC(C)C)NC(=O)[C@@H]1CCCN1C(=O)[C@H](CC(C)C)NC(=O)[C@H](CC(=O)O)NC(=O)[C@@H](NC(=O)[C@H](CO)NC(=O)[C@H](CC(C)C)NC(=O)[C@H](CO)NC(=O)[C@@H]1CCCN1C(=O)[C@H](CC(N)=O)NC(=O)[C@@H](N)CC(=O)O)[C@@H](C)CC)[C@@H](C)O)[C@@H](C)O)C(=O)N[C@H](C(=O)N[C@@H](Cc1ccccc1)C(=O)N[C@@H](C)C(=O)N[C@@H](CO)C(=O)N[C@H](C(N)=O)C(C)C)[C@@H](C)CC [compound 346] (H-DNPSLSIDLPLLLLRTLLELEKTQSQRERAEQNAIIFASV-NH2; N-terminus assumed) | 59 | 97.8 | – | – | – | – |
| CC[C@H](C)[C@H](NC(=O)[C@H](C)NC(=O)[C@H](CC(N)=O)NC(=O)[C@H](CCC(N)=O)NC(=O)[C@H](CCC(=O)O)NC(=O)[C@H](C)NC(=O)[C@H](CCCNC(=N)N)NC(=O)[C@H](CCC(=O)O)NC(=O)[C@H](CCCNC(=N)N)NC(=O)[C@H](CCC(N)=O)NC(=O)[C@H](CO)NC(=O)[C@H](CCC(N)=O)NC(=O)[C@@H](NC(=O)[C@H](CCCNC(=N)N)NC(=O)[C@H](C)NC(=O)[C@H](CC(C)C)NC(=O)[C@H](CCC(=O)O)NC(=O)[C@H](CC(C)C)NC(=O)[C@H](CC(C)C)NC(=O)[C@@H](NC(=O)[C@H](CCCNC(=N)N)NC(=O)[C@H](CC(C)C)NC(=O)[C@H](CC(C)C)NC(=O)[C@H](Cc1ccc(O)cc1)NC(=O)[C@@H](NC(=O)[C@@H]1CCCN1C(=O)[C@H](CC(C)C)NC(=O)[C@H](CC(=O)O)NC(=O)[C@@H](NC(=O)[C@H](CO)NC(=O)[C@H](CC(C)C)NC(=O)[C@H](CO)NC(=O)[C@@H]1CCCN1C(=O)[C@H](CC(N)=O)NC(=O)[C@@H](N)CC(=O)O)[C@@H](C)CC)[C@@H](C)O)[C@@H](C)O)[C@@H](C)O)C(=O)N[C@H](C(=O)N[C@@H](Cc1ccccc1)C(=O)N[C@@H](C)C(=O)N[C@@H](CO)C(=O)N[C@H](C(N)=O)C(C)C)[C@@H](C)CC [compound 173] (H-DNPSLSIDLPTYLLRTLLELARTQSQRERAEQNAIIFASV-NH2) | 6.05 | 65.2 | – | – | – | – |
| SQEPPISLDLPTELLREVLEMTKADQLAQQAHSNRKIIDIA-NH2 [compound 92] | 4.6 | 15.8 | – | – | – | – |
| CC[C@H](C)[C@H](N)C(=O)N[C@H](C(=O)N[C@@H](CC(C)C)C(=O)N[C@@H](CO)C(=O)N[C@@H](CC(C)C)C(=O)N[C@@H](CC(=O)O)C(=O)N[C@H](C(=O)N1CCC[C@H]1C(=O)N[C@H](C(=O)NCC(=O)N[C@@H](CC(C)C)C(=O)N[C@@H](CC(C)C)C(=O)N[C@@H](CCC(N)=O)C(=O)N[C@@H](CCCCN)C(=O)N[C@@H](CCSC)C(=O)N[C@H](C(=O)N[C@@H](CCC(=O)O)C(=O)N[C@H](C(=O)N[C@@H](CCC(=O)O)C(=O)N[C@@H](CCCCN)C(=O)N[C@@H](CCC(N)=O)C(=O)N[C@@H](CCC(=O)O)C(=O)N[C@@H](CCCCN)C(=O)N[C@@H](CCC(=O)O)C(=O)N[C@@H](CCCCN)C(=O)N[C@@H](CCC(N)=O)C(=O)N[C@@H](CCC(N)=O)C(=O)N[C@@H](C)C(=O)N[C@H](C(=O)N[C@H](C(=O)N[C@@H](CC(N)=O)C(=O)N[C@@H](C)C(=O)N[C@@H](CCCNC(=N)N)C(=O)N[C@H](C(=O)N[C@@H](CC(C)C)C(=O)N[C@@H](C)C(=O)N[C@@H](CCCNC(=N)N)C(=O)N[C@H](C(N)=O)C(C)C)[C@@H](C)CC)[C@@H](C)O)[C@@H](C)O)[C@@H](C)CC)[C@@H](C)CC)[C@@H](C)CC)C(C)C)C(C)C [compound 322] (H-IVLSLDVPIGLLQKMIEIEKQEKEKQQATTNARILARV-NH2; N-terminus assumed) | 10.7 | 96.5 | ≥ 1000 | 23.1 | – | – |
| CC[C@H](C)[C@H](N)C(=O)N[C@H](C(=O)N[C@@H](CC(C)C)C(=O)N[C@@H](CO)C(=O)N[C@@H](CC(C)C)C(=O)N[C@@H](CC(=O)O)C(=O)N[C@H](C(=O)N[C@@H](CO)C(=O)N[C@H](C(=O)NCC(=O)N[C@@H](CC(C)C)C(=O)N[C@@H](CC(C)C)C(=O)N[C@@H](CCC(N)=O)C(=O)N[C@H](C(=O)N[C@@H](CC(C)C)C(=O)N[C@@H](CC(C)C)C(=O)N[C@@H](CCC(=O)O)C(=O)N[C@@H](CCC(N)=O)C(=O)N[C@@H](C)C(=O)N[C@@H](CCCNC(=N)N)C(=O)N[C@@H](C)C(=O)N[C@@H](CCCNC(=N)N)C(=O)N[C@@H](C)C(=O)N[C@@H](C)C(=O)N[C@@H](CCCNC(=N)N)C(=O)N[C@@H](CCC(=O)O)C(=O)N[C@@H](CCC(N)=O)C(=O)N[C@@H](C)C(=O)N[C@H](C(=O)N[C@H](C(=O)N[C@@H](CC(N)=O)C(=O)N[C@@H](C)C(=O)N[C@@H](CCCNC(=N)N)C(=O)N[C@H](C(=O)N[C@@H](CC(C)C)C(=O)N[C@@H](C)C(=O)N[C@@H](CCCNC(=N)N)C(=O)N[C@H](C(N)=O)C(C)C)[C@@H](C)CC)[C@@H](C)O)[C@@H](C)O)[C@@H](C)CC)[C@@H](C)CC)C(C)C)C(C)C [compound 370] (H-IVLSLDVSIGLLQILLEQARARAAREQATTNARILARV-NH2; N-terminus assumed) | 33 | 75 | – | – | ≥ 1000 | 51 |
| CC[C@H](C)[C@H](NC(=O)[C@H](C)NC(=O)[C@H](CC(N)=O)NC(=O)[C@H](CCC(N)=O)NC(=O)[C@H](CCC(=O)O)NC(=O)[C@H](C)NC(=O)[C@H](CCCNC(=N)N)NC(=O)[C@H](CCC(=O)O)NC(=O)[C@H](CCCNC(=N)N)NC(=O)[C@H](CCC(N)=O)NC(=O)[C@H](CO)NC(=O)[C@H](CCC(N)=O)NC(=O)[C@@H](NC(=O)[C@H](CCCNC(=N)N)NC(=O)[C@H](C)NC(=O)[C@H](CC(C)C)NC(=O)[C@H](CCC(=O)O)NC(=O)[C@H](CC(C)C)NC(=O)[C@H](CC(C)C)NC(=O)[C@@H](NC(=O)[C@H](CCCNC(=N)N)NC(=O)[C@H](CC(C)C)NC(=O)[C@H](CC(C)C)NC(=O)[C@H](CC(C)C)NC(=O)[C@H](CC(C)C)NC(=O)[C@@H]1CCCN1C(=O)[C@H](CC(C)C)NC(=O)[C@H](CC(=O)O)NC(=O)[C@@H](NC(=O)[C@H](CO)NC(=O)[C@H](CC(C)C)NC(=O)[C@H](CO)NC(=O)[C@@H]1CCCN1C(=O)[C@H](CC(N)=O)NC(=O)[C@@H](N)CC(=O)O)[C@@H](C)CC)[C@@H](C)O)[C@@H](C)O)C(=O)N[C@H](C(=O)N[C@@H](Cc1ccccc1)C(=O)N[C@@H](C)C(=O)N[C@@H](CO)C(=O)N[C@H](C(N)=O)C(C)C)[C@@H](C)CC [compound 174] (H-DNPSLSIDLPLLLLRTLLELARTQSQRERAEQNAIIFASV-NH2; N-terminus assumed) | 29.1 | 97.2 | – | – | – | – |
| NDDPPISIDLPFFLLRNMIEMARIENEREQAGLNAKYLAEV-NH2 [compound 264] | 100 | 66.3 | – | – | – | – |
| CC[C@H](C)[C@H](NC(=O)[C@H](CCCNC(=N)N)NC(=O)[C@H](C)NC(=O)[C@H](CC(N)=O)NC(=O)[C@H](CCC(N)=O)NC(=O)[C@H](CCC(=O)O)NC(=O)[C@H](C)NC(=O)[C@H](CCCNC(=N)N)NC(=O)[C@H](CCC(=O)O)NC(=O)[C@H](CCCNC(=N)N)NC(=O)[C@H](CCC(N)=O)NC(=O)[C@H](CO)NC(=O)[C@H](CCC(N)=O)NC(=O)[C@@H](NC(=O)[C@H](CCCCN)NC(=O)[C@H](CCC(=O)O)NC(=O)[C@H](CC(C)C)NC(=O)[C@H](CCC(=O)O)NC(=O)[C@H](CC(C)C)NC(=O)[C@H](CC(C)C)NC(=O)[C@@H](NC(=O)[C@H](CCCNC(=N)N)NC(=O)[C@H](CC(C)C)NC(=O)[C@H](CC(C)C)NC(=O)[C@H](CC(C)C)NC(=O)[C@H](CC(C)C)NC(=O)[C@@H]1CCCN1C(=O)[C@H](CC(C)C)NC(=O)[C@H](CC(=O)O)NC(=O)[C@@H](NC(=O)[C@H](CO)NC(=O)[C@H](CC(C)C)NC(=O)[C@H](CO)NC(=O)[C@@H]1CCCN1)[C@@H](C)CC)[C@@H](C)O)[C@@H](C)O)C(=O)N[C@@H](Cc1ccccc1)C(=O)N[C@@H](C)C(=O)N[C@@H](CCCNC(=N)N)C(=O)N[C@H](C(N)=O)C(C)C [compound 333] (H-PSLSIDLPLLLLRTLLELEKTQSQRERAEQNARIFARV-NH2; N-terminus assumed) | 43.8 | 96.9 | – | – | ≥ 1000 | 9.85 |
